According to ChEMBL document CHEMBL1139637, “Synthesis, X-ray crystallographic analysis, and antitumor activity of 1-acyl-3,6-disubstituted phenyl-1,4-dihydro-1,2,4,5-tetrazines” (2005):

Experiments:
A549 [1] = assay: Inhibition ratio against the growth of A-549 cells at 10e-5 mol/L concentration determined by SRB method; assay type: functional, Homo sapiens
P388 [2] = assay: Inhibition ratio against the growth of P-388 cells at 10e-7 mol/L concentration determined by MTT method; assay type: functional, Mus musculus
A549 [3] = assay: Inhibition ratio against the growth of A-549 cells at 10e-7 mol/L concentration determined by SRB method; assay type: functional, Homo sapiens
A549 [4] = assay: Inhibition ratio against the growth of A-549 cells at 10e-4 mol/L concentration determined by SRB method; assay type: functional, Homo sapiens
A549 [5] = assay: Inhibition ratio against the growth of A-549 cells at 10e-8 mol/L concentration determined by SRB method; assay type: functional, Homo sapiens
P388 [6] = assay: Inhibition ratio against the growth of P-388 cells at 10e-6 mol/L concentration determined by MTT method; assay type: functional, Mus musculus
A549 [7] = assay: Inhibition ratio against the growth of A-549 cells at 10e-6 mol/L concentration determined by SRB method; assay type: functional, Homo sapiens
P388 [8] = assay: Inhibition ratio against the growth of P-388 cells at 10e-8 mol/L concentration determined by MTT method; assay type: functional, Mus musculus
P388 [9] = assay: Inhibition ratio against the growth of P-388 cells at 10e-4 mol/L concentration determined by MTT method; assay type: functional, Mus musculus
P388 [10] = assay: Inhibition ratio against the growth of P-388 cells at 10e-5 mol/L concentration determined by MTT method; assay type: functional, Mus musculus

Compound `CC(C)C(=O)N1N=C(c2ccccc2)NN=C1c1ccccc1` has an Inhibition ratio (A549 [1]) of 46.6, an Inhibition ratio (P388 [2]) of 24.9 and an Inhibition ratio (A549 [3]) of 29.6. The Inhibition ratio (A549 [4]) was 83.8, the Inhibition ratio (A549 [5]) was 29.5 and the Inhibition ratio (P388 [6]) was 52. The Inhibition ratio (A549 [7]) was 38.7, the Inhibition ratio (P388 [8]) was 46.9 and the Inhibition ratio (P388 [9]) was 82.5. The Inhibition ratio (P388 [10]) was 61.1.
`O=C(CCl)N1N=C(c2ccc(C(F)(F)F)cc2)NN=C1c1ccc(C(F)(F)F)cc1` gave an Inhibition ratio (A549 [1]) of 64.6, an Inhibition ratio (P388 [2]) of 11.3 and an Inhibition ratio (A549 [3]) of 0. It also gave an Inhibition ratio (A549 [4]) of 95.5, an Inhibition ratio (A549 [5]) of 0 and an Inhibition ratio (P388 [6]) of 2.2. It also gave an Inhibition ratio (A549 [7]) of 0, an Inhibition ratio (P388 [8]) of 0 and an Inhibition ratio (P388 [9]) of 98.4. It also gave an Inhibition ratio (P388 [10]) of 49.4.
`CCC(=O)N1N=C(c2ccc(C(F)(F)F)cc2)NN=C1c1ccc(C(F)(F)F)cc1` showed an Inhibition ratio (A549 [1]) of 48.1, an Inhibition ratio (P388 [2]) of 6.3 and an Inhibition ratio (A549 [3]) of 0. It also gave an Inhibition ratio (A549 [4]) of 84.7, an Inhibition ratio (A549 [5]) of 9 and an Inhibition ratio (P388 [6]) of 6.7. The Inhibition ratio (A549 [7]) was 21.7, the Inhibition ratio (P388 [8]) was 0 and the Inhibition ratio (P388 [9]) was 68. The Inhibition ratio (P388 [10]) was 21.1.
Work on `CC(=O)N1N=C(c2ccccc2)NN=C1c1ccccc1` yielded an Inhibition ratio (A549 [1]) of 0, an Inhibition ratio (P388 [2]) of 5.5 and an Inhibition ratio (A549 [3]) of 0. The Inhibition ratio (A549 [4]) was 85.1, the Inhibition ratio (A549 [5]) was 0 and the Inhibition ratio (P388 [6]) was 6.6. The Inhibition ratio (A549 [7]) was 0, the Inhibition ratio (P388 [8]) was 9.2 and the Inhibition ratio (P388 [9]) was 62.7. For the same compound, the Inhibition ratio (P388 [10]) was 10.9.
Compound `O=C(CCl)N1N=C(c2ccccc2)NN=C1c1ccccc1` has an Inhibition ratio (A549 [1]) of 95.8, an Inhibition ratio (P388 [2]) of 3.6 and an Inhibition ratio (A549 [3]) of 4.1. It also gave an Inhibition ratio (A549 [4]) of 95.4, an Inhibition ratio (A549 [5]) of 13 and an Inhibition ratio (P388 [6]) of 3.9. The Inhibition ratio (A549 [7]) was 35.3, the Inhibition ratio (P388 [8]) was 0 and the Inhibition ratio (P388 [9]) was 99.1. For the same compound, the Inhibition ratio (P388 [10]) was 100.
`CCC(=O)N1N=C(c2ccccc2)NN=C1c1ccccc1` was tested, and the Inhibition ratio (A549 [1]) was 11.1, the Inhibition ratio (P388 [2]) was 7.7 and the Inhibition ratio (A549 [3]) was 12.3. For the same compound, the Inhibition ratio (A549 [4]) was 71.5, the Inhibition ratio (A549 [5]) was 0 and the Inhibition ratio (P388 [6]) was 7.6. It also gave an Inhibition ratio (A549 [7]) of 6.2, an Inhibition ratio (P388 [8]) of 8.5 and an Inhibition ratio (P388 [9]) of 30.9. The Inhibition ratio (P388 [10]) was 9.8.
Compound `CC(C)C(=O)N1N=C(c2ccc(C(F)(F)F)cc2)NN=C1c1ccc(C(F)(F)F)cc1` has an Inhibition ratio (A549 [1]) of 21, an Inhibition ratio (P388 [2]) of 16.2 and an Inhibition ratio (A549 [3]) of 0. For the same compound, the Inhibition ratio (A549 [4]) was 79.8, the Inhibition ratio (A549 [5]) was 0 and the Inhibition ratio (P388 [6]) was 15. For the same compound, the Inhibition ratio (A549 [7]) was 0, the Inhibition ratio (P388 [8]) was 13.4 and the Inhibition ratio (P388 [9]) was 42.2. For the same compound, the Inhibition ratio (P388 [10]) was 26.9.
For `CC(=O)N1N=C(c2ccc(C(F)(F)F)cc2)NN=C1c1ccc(C(F)(F)F)cc1`, the Inhibition ratio (A549 [1]) was 63.6, the Inhibition ratio (P388 [2]) was 5 and the Inhibition ratio (A549 [3]) was 0. It also gave an Inhibition ratio (A549 [4]) of 91.1, an Inhibition ratio (A549 [5]) of 0 and an Inhibition ratio (P388 [6]) of 1.1. The Inhibition ratio (A549 [7]) was 0, the Inhibition ratio (P388 [8]) was 0 and the Inhibition ratio (P388 [9]) was 50.6. For the same compound, the Inhibition ratio (P388 [10]) was 21.5.
